In ChEMBL document CHEMBL4270607, “Identification of crizotinib derivatives as potent SHIP2 inhibitors for the treatment of Alzheimer's disease” (Eur J Med Chem, 2018):

Tests used:
[1] = Metabolic stability in dog liver microsomes assessed as parent compound remaining at 1 uM preincubated for 5 mins followed by NADPH addition measured after 30 mins by LC-MS/MS analysis; format: ADME, Canis lupus familiaris, microsome; conditions: read-out: Stability
CYP2C9 = CYP2C9 (Homo sapiens, UniProt P11712); assay: Inhibition of recombinant human CYP2C9 assessed as remaining enzyme activity at 10 uM preincubated for 5 mins followed by NADPH addition measured after 20 mins by fluorescence assay relative to control; format: ADME; conditions: read-out: Activity
Sequence of CYP2C9 (P11712 whole entry): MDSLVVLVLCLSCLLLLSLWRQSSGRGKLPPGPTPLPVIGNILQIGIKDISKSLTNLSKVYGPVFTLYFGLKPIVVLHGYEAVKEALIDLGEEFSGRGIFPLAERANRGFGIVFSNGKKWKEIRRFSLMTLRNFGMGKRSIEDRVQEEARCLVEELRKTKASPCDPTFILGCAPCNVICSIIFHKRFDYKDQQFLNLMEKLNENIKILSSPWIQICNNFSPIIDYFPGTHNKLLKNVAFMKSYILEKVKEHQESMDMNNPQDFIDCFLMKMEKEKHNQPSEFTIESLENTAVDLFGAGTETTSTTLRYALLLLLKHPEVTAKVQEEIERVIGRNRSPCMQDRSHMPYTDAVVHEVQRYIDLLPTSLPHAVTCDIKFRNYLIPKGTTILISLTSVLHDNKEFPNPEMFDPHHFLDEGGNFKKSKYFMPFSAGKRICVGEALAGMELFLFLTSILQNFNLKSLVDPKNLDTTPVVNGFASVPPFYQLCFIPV

[2] = Metabolic stability in human liver microsomes assessed as parent compound remaining at 1 uM preincubated for 5 mins followed by NADPH addition measured after 30 mins by LC-MS/MS analysis; format: ADME, microsome; conditions: read-out: Stability
[3] = Metabolic stability in rat liver microsomes assessed as parent compound remaining at 1 uM preincubated for 5 mins followed by NADPH addition measured after 30 mins by LC-MS/MS analysis; format: ADME, microsome; conditions: read-out: Stability
CYP2D6 = CYP2D6 (Homo sapiens, UniProt P10635); assay: Inhibition of recombinant human CYP2D6 assessed as remaining enzyme activity at 10 uM preincubated for 5 mins followed by NADPH addition measured after 20 mins by fluorescence assay relative to control; format: ADME; conditions: read-out: Activity
Sequence of CYP2D6 (P10635 whole entry): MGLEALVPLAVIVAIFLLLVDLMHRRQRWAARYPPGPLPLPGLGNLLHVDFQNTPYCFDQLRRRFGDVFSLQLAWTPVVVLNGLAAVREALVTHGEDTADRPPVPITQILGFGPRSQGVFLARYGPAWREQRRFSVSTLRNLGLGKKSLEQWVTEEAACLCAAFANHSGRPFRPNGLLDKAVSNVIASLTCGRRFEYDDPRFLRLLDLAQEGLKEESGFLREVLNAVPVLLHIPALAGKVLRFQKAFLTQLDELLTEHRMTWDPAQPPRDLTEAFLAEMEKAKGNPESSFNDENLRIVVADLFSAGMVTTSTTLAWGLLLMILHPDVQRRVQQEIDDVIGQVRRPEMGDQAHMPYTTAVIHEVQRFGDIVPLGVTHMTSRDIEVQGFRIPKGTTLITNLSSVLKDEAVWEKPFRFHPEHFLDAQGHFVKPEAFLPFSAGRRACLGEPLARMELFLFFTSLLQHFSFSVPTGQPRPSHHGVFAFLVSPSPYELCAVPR

CYP3A4 = CYP3A4 (Homo sapiens, UniProt P08684); assay: Inhibition of recombinant human CYP3A4 assessed as remaining enzyme activity at 10 uM preincubated for 5 mins followed by NADPH addition measured after 20 mins by fluorescence assay relative to control; format: ADME; conditions: read-out: Activity
Sequence of CYP3A4 (P08684 whole entry): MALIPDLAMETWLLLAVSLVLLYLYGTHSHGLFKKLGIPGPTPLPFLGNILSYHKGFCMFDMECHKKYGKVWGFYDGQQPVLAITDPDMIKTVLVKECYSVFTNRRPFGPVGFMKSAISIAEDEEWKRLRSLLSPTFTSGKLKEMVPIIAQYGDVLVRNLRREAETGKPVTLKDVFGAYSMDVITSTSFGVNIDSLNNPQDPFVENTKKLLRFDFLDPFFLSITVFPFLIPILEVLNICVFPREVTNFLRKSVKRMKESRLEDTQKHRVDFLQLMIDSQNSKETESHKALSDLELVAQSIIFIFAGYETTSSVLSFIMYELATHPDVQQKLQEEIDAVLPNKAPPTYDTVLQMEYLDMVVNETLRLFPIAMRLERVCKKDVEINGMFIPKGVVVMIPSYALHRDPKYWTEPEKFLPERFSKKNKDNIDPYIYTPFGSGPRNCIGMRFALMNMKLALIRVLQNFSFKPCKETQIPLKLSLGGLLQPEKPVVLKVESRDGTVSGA

HT-22 = assay: Cytotoxicity against mouse HT22 cells assessed as decrease in cell viability at 10 uM after 24 hrs by MTT assay; format: cell-based; conditions: ht-22, 24 h
CYP1A2 = biological target: T1, CYP1A2 (Homo sapiens, UniProt P05177); assay: Inhibition of recombinant human CYP1A2 assessed as remaining enzyme activity at 10 uM preincubated for 5 mins followed by NADPH addition measured after 20 mins by fluorescence assay relative to control; format: ADME; conditions: read-out: Activity
T1 sequence (P05177 whole entry): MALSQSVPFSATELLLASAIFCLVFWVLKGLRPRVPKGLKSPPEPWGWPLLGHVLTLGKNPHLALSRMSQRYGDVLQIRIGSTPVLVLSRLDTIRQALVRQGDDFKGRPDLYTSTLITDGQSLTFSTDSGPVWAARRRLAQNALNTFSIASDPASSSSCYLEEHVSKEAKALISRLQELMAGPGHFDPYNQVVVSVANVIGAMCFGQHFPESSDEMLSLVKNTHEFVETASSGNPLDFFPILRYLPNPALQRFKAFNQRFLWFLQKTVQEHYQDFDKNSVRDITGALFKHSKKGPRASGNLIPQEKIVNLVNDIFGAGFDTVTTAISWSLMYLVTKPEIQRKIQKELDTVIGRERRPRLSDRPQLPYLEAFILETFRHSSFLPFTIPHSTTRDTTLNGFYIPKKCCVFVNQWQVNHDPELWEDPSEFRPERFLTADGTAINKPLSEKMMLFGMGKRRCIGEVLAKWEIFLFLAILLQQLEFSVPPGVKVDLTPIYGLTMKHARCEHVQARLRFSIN

[4] = biological target: T2, Phosphatidylinositol 3,4,5-trisphosphate 5-phosphatase 2 (Homo sapiens) (UniProt O15357); assay: Inhibition of SHIP2 (unknown origin) assessed as remaining enzyme activity at 30 uM using PtdIns(3,4,5)P3 as substrate preincubated for 20 mins followed by substrate addition measured for 50 mins by malachite green staining based assay relative to control
T2 sequence (whole entry): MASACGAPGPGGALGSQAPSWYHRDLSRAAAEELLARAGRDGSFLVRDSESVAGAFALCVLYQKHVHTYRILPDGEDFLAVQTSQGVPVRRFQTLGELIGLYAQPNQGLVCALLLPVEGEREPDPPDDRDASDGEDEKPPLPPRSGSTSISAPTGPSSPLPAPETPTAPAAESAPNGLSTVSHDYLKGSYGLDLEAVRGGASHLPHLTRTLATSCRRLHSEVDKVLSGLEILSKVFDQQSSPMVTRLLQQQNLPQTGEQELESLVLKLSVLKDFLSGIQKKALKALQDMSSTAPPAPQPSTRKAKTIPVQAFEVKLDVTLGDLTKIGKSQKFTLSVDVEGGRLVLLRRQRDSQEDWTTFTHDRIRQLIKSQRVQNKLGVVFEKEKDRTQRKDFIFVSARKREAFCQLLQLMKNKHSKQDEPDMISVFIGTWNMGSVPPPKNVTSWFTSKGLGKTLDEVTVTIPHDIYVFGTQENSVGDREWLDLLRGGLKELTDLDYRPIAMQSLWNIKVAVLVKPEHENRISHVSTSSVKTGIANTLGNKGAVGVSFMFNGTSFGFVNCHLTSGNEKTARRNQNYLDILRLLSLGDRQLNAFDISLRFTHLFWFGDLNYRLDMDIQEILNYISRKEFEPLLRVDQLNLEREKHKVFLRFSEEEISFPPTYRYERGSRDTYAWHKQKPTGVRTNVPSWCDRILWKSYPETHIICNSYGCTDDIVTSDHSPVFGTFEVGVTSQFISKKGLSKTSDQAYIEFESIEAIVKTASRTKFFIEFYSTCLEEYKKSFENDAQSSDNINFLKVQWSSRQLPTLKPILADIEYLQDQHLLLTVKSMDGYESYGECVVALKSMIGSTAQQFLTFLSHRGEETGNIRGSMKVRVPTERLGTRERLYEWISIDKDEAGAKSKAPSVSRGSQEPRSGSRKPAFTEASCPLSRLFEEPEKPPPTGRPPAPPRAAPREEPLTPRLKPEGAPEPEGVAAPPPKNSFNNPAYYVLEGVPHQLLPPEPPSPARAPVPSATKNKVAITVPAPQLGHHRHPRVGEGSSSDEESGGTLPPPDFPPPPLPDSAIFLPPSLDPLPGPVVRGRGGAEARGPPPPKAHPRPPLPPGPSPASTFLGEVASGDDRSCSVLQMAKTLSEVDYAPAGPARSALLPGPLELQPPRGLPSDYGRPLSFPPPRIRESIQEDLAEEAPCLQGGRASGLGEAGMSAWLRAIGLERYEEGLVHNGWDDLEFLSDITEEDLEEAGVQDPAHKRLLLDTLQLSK

CYP2C19 = CYP2C19 (Homo sapiens, UniProt P33261); assay: Inhibition of recombinant human CYP2C19 assessed as remaining enzyme activity at 10 uM preincubated for 5 mins followed by NADPH addition measured after 20 mins by fluorescence assay relative to control; format: ADME; conditions: read-out: Activity
Sequence of CYP2C19 (P33261 whole entry): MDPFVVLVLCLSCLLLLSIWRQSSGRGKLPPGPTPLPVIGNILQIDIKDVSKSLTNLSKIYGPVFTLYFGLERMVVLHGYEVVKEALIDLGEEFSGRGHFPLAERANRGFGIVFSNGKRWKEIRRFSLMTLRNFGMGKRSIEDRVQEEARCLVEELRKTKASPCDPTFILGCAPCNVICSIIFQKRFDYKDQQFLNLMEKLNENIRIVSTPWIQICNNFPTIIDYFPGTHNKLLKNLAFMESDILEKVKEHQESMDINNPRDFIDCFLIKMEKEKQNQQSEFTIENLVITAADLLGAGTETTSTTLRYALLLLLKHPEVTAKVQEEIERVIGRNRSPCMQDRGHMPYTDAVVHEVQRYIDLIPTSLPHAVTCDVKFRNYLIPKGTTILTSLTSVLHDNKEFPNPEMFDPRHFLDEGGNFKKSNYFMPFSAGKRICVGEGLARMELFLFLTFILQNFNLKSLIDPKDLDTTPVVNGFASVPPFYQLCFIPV

| Structure (SMILES) | remaining at 0.5 h, 1 µM [1] [%] | activity at 20 min, 10 µM (CYP2C9) [%] | remaining at 0.5 h, 1 µM [2] [%] | remaining at 0.5 h, 1 µM [3] [%] | activity at 20 min, 10 µM (CYP2D6) [%] | activity at 20 min, 10 µM (CYP3A4) [%] | Activity (HT-22) | activity at 20 min, 10 µM (CYP1A2) [%] | Activity [4] [%] | activity at 20 min, 10 µM (CYP2C19) [%] |
| --- | --- | --- | --- | --- | --- | --- | --- | --- | --- | --- |
| O=C(NCc1c(F)cccc1F)c1sccc1OCc1ccc(Cl)cc1Cl | 5.7 | 10.9 | 44.1 | 28.3 | 82.7 | 20.2 | Toxic | 74.3 | 17.1 | 16.4 |
| N#Cc1ccc(-c2cncc(OCc3ccc(Cl)cc3Cl)c2)s1 | 24.3 | 97.2 | 74.5 | 64.3 | 93.1 | 96.7 | Non-Toxic | 77.6 | 19.9 | 89.9 |
| C[C@@H](Oc1cncc(-c2cnc(N)nc2)c1)c1c(Cl)ccc(F)c1Cl | 23.1 | 66.7 | 77 | 56.4 | 94.4 | 80.2 | Non-Toxic | 59 | 20.2 | 36.4 |
